# Test system: Wister-ST male rats
# Experiment: Total plasma cholesterol lowering effect of DFA and isoflavone in combination, rats fed for 19 days
# Assay type: in vivo
# Conditions: 1.5% in isoflavone-containing feed
# Excerpt: A total plasma cholesterol lowering effect was studied using DFA and an isoflavone in combination.
# After preliminary feeding 21 Wister-ST male rats (6 weeks of age) a non-isoflavone feed for 3 days, the animals were divided into 3 groups (each n=7) by a body weight stratification procedure and were individually fed for 19 days a basal feed containing 0.25% food product supplemented with 40% isoflavone (basal diet group), a feed in which cellulose in the basal feed was replaced with 1.5% (final) DFA III (DFA III group), and a feed in which cellulose in the basal feed was replaced with 1.5% (final) fructooligosaccharide (FOS group), as shown in Table 1. On the 20th day, blood samples were taken from the abdominal aorta to obtain plasma by centrifugation and the total plasma cholesterol was measured using an automatic analyzer (DRI-CHEM 3500, Fuji Film Medical).
# In the table, figures with different alphabets, a and b, denote that there is a significant difference between the figures. […] The level of HDL cholesterol was slightly low in the DFA III group; however, the differences between the groups were not significant.
smiles,measurement,setting,value
"OC[C@H]1O[C@@]2(CO[C@]3(CO)O[C@H](CO)[C@@H](O)[C@@H]3O2)[C@@H](O)[C@@H]1O [DFA III, difructose anhydride]",level of HDL cholesterol (in words),differences between groups not significant,slightly low
same,total serum cholesterol level compared to the group fed an isoflavone alone (in words),p=0.051 (Sheffe) basal diet vs DFA III,tended to be lowered

# From patent US20080132466A1, “Blood Cholesterol Reducing Oral Composition” (priority 2005, published 2008)
